Literature values in patent US7129249B2, “Heterocyclic amide derivatives as inhibitors of glycogen phoshorylase” (AstraZeneca AB, priority 2002, dated 2006).

Tests used:
db/db and ob/ob mice = db/db and ob/ob mice following treatment
conscious dogs = details: following a glucagon challenge

| Structure (SMILES) | plasma glucose concentration (db/db and ob/ob mice) | glucagon stimulated glycogenolysis (hepatocytes) | glucose output (hepatocytes) | arterial plasma glucose (conscious dogs) | hepatic glucose output (conscious dogs) |
| --- | --- | --- | --- | --- | --- |
| CN(C)C(=O)[C@H](O)[C@H](Cc1ccccc1)NC(=O)c1cc2cc(Cl)ccc2[nH]1 [CP91149] | reduced, in a dose related manner | reduce | reduce | – | – |
| CCN1C(C)=C(C(=O)OC(C)C)C(c2ccccc2Cl)C2=C1COC2=O (centres unmarked) [Bay R 3401] | – | – | – | reduced significantly | reduced significantly |
| O=C(N[C@@H](Cc1ccc(F)cc1)C(=O)N1CCC(O)CC1)c1cc2cc(Cl)ccc2[nH]1 [CP320626] | reduced, in a dose related manner | reduce | reduce | – | – |
